US20100093808A1, “SALT AND POLYMORPH OF A DPP-IV INHIBITOR” (priority 2005, published 2010)
Structures can show the parent of a compound that is named as a salt.

Target: T1, human DPP-IV (Homo sapiens, UniProt P27487)
T1 construct: made in house; host or cells: Pichia pastoris (purified from the culture medium)
Assay: DPP-IV activity assay (colorimetric / fluorometric)
Assay type: biochemical
Conditions: natural human DPP-IV from human plasma pool or recombinant human DPP-IV; 37° C., pH 7.8
Procedure: Activity of DPP-IV inhibitors are tested with natural human DPP-IV derived from a human plasma pool or with recombinant human DPP-IV. Human citrate plasma from different donors is pooled, filtered through a 0.2 micron membrane under sterile conditions and aliquots of 1 mL are shock frozen and stored at […]. until used. In the colorimetric DPP-IV assay 5 to 10 μL human plasma and in the fluorometric assay 1.0 μL of human plasma in a total assay volume of 100 μL is used as an enzyme source. The cDNA of the human DPP-IV sequence of amino acid 31- to 766, restricted for the N-terminus and the transmembrane domain, is cloned into pichia pastoris. […]
In the colorimetric assay H-Ala-Pro-pNA.HCl (Bachem L-1115) is used as a substrate. […] Fluorescence is detected in a Perkin Elmer Luminescence Spectrometer LS 50B at an excitation wavelength of 400 nm and an emission wavelength of 505 nm continuously every 15 seconds for 10 to 30 minutes. Initial rate constants are calculated by best fit linear regression. The absorption of pNA liberated from the colorimetric substrate is detected in a Packard SpectraCount at […] continuously every 2 minutes for 30 to 120 minutes. Initial rate constants are calculated by best fit linear regression. […]
IC50 determinations of test compounds are calculated by non-linear best fit regression of the DPP-IV inhibition of at least 5 different compound concentrations. […]

T1 sequence (P27487 31-766): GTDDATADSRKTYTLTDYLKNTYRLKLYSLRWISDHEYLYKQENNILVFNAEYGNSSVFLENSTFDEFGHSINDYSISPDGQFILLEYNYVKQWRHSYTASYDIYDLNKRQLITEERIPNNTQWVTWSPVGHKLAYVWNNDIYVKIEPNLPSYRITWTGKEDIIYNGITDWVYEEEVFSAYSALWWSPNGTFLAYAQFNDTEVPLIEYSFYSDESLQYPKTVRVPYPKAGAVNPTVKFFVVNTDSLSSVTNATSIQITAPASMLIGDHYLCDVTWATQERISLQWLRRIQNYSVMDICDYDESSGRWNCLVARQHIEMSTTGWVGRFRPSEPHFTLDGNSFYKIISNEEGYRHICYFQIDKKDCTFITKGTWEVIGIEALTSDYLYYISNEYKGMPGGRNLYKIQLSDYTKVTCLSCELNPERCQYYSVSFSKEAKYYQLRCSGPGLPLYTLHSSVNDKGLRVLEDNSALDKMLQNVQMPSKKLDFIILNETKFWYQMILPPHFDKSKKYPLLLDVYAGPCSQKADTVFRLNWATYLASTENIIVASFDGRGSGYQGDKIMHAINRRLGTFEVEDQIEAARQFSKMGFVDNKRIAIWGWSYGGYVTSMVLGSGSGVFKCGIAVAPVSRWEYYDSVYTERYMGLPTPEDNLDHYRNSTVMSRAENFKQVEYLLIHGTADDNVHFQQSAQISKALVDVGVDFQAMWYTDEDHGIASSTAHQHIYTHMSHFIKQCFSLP

Structure (SMILES): CC(C)(CCn1cnc(-c2cccnc2)c1)NCC(=O)N1CCC[C@H]1C#N [(2S)-1-{[1,1-Dimethyl-3-(4-pyridin-3-yl-imidazol-1-yl)-propylamino]-acetyl}-pyrrolidine-2-carbonitrile fumarate]
- IC50: 21.2 nM
- Ki: 22.7 nM
